# In PMC11472313, “Development of Fragment-Based Inhibitors of the Bacterial Deacetylase LpxC with Low Nanomolar Activity” (Journal of Medicinal Chemistry, 2024):
# How the values were obtained:
# E. coli LpxC (EcLpxC) = settings: cited from earlier work
# [1] = test system: P. aeruginosa LpxC (PaLpxC); settings: cited from earlier work
# LasB = target: T1, LasB (Pseudomonas aeruginosa, UniProt Q02RJ6); settings: cited from earlier work
# T1 construct: The elastase LasB of P. aeruginosa is a secreted metalloprotease; endogenous in cells; host or cells: P. aeruginosa PA14 culture supernatant
# T1 sequence (Q02RJ6 198-498): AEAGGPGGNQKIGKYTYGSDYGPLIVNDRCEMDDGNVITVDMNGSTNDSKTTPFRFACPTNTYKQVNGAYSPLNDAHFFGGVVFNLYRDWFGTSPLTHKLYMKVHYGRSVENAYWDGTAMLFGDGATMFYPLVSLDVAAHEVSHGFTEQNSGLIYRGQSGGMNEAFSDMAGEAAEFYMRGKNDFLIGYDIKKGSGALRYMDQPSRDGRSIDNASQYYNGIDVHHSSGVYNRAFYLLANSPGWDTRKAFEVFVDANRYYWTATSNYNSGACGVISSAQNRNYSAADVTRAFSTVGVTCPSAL
# E. coli BL21(DE3) = settings: cited from earlier work
# E. coli LpxC C63A [2] = target: T2, E. coli LpxC C63A (Escherichia coli, UniProt P0A725, C63A); settings: versus (2R,3S)-10; cited from earlier work
# T2 construct: made in house; host or cells: E. coli BL21(DE3)
# T2 sequence (P0A725 whole entry C63A): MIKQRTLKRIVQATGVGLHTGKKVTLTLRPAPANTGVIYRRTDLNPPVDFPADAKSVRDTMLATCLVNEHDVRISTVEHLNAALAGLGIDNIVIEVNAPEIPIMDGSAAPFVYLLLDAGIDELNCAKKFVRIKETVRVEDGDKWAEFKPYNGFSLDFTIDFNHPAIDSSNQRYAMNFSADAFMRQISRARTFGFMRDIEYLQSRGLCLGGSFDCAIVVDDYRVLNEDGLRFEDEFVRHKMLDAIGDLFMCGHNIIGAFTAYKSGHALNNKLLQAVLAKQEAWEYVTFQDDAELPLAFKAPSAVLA
# E. coli LpxC C63A [3] = target: T2, E. coli LpxC C63A; test: LC–MS/MS-based determination of KM; type: biochemical; settings: substrate 1, LC–MS/MS-based assay
# Experimental: In order to determine the inhibitory activities of the compounds of interest toward E. coli LpxC, a fluorescence-based enzyme assay was deployed, in which the formed deacetylated natural product UDP-3-O-[(R)-3-hydroxymyristoyl]glucosamine (2) is transformed into a fluorescent isoindole with o-phthaldialdehyde and 2-mercaptoethanol.[48],[49] […] The KM of E. coli LpxC C63A was determined experimentally using a mass spectrometry-based LpxC assay (Figure S8, Supporting Information, vide infra).
# Generally, the LC–MS/MS-based method represents an alternative to analyze compounds, which cannot be tested in the fluorescence-based assay, like primary amines and intrinsically fluorescent compounds. Additionally, it offers the advantage that lower substrate concentrations (10%) are used in the established protocol compared to the fluorescence-based assay, in which the detection of respectively low product concentrations would be difficult to detect due to inherently high background fluorescence. […] Additionally, the KM of E. coli LpxC C63A could be determined using the LC–MS/MS-based method (Figure S8, Supporting Information, vide supra). […]
# The values of KM and vmax for the E. coli LpxC C63A- as well as the P. aeruginosa LpxC-catalyzed deacetylation of UDP-3-O-[(R)-3-hydroxymyristoyl]-N-acetylglucosamine (1) were determined using the conditions of the established LC-MS/MS-based enzyme assay. […]
# P. aeruginosa LpxC = target: T3, P. aeruginosa LpxC (Pseudomonas aeruginosa, UniProt P47205); test: LC–MS/MS-based determination of KM; type: biochemical; settings: read-out: KM of the P. aeruginosa LpxC-catalyzed deacetylation; substrate 1, LC–MS/MS-based assay
# T3 construct: made in house; host or cells: E. coli BL21(DE3)
# T3 sequence (P47205 whole entry): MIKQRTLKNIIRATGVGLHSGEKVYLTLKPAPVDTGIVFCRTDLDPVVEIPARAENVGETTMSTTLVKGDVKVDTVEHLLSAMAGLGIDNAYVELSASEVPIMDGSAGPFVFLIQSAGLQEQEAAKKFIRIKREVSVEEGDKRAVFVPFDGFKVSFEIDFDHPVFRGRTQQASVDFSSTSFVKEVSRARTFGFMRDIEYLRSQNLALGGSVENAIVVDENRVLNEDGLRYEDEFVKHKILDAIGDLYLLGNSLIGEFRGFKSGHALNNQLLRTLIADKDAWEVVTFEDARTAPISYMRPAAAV
# Text: Generally, the LC–MS/MS-based method represents an alternative to analyze compounds, which cannot be tested in the fluorescence-based assay, like primary amines and intrinsically fluorescent compounds. Additionally, it offers the advantage that lower substrate concentrations (10%) are used in the established protocol compared to the fluorescence-based assay, in which the detection of respectively low product concentrations would be difficult to detect due to inherently high background fluorescence. […] Additionally, the KM of E. coli LpxC C63A could be determined using the LC–MS/MS-based method (Figure S8, Supporting Information, vide supra).
# Determination of enzymatic parameters
# The values of KM and vmax for the E. coli LpxC C63A- as well as the P. aeruginosa LpxC-catalyzed deacetylation of UDP-3-O-[(R)-3-hydroxymyristoyl]-N-acetylglucosamine (1) were determined using the conditions of the established LC-MS/MS-based enzyme assay.
# The wells in a black, non-binding, 96-well fluorescence microplate (Greiner Bio One, Frickenhausen) were filled with 93 µL of varying concentrations of UDP-3-O-[(R)-3-hydroxymyristoyl]-N-acetylglucosamine (26.9 µM, 10.8 µM, 2.69 µM, 1.08 µM, 0.538 µM, 0.269 µM) in assay buffer (40 mM sodium morpholinoethanesulfonic acid (pH = 6.0), 80 µM dithiothreitol, 0.02% Brij 35). […]
compound,measurement,setting,value
"O=c1ccn([C@@H]2O[C@H](CO/N=C/c3ccc(O)c(O)c3O)[C@@H](O)[C@H]2O)c(=O)[nH]1 [1-68A, 1–68A]",IC50,E. coli LpxC (EcLpxC),27000 nM
CC(O)(c1ccc(O)cc1)C(NC(=O)c1ccc(C#CC#Cc2ccc(N)cc2)cc1)C(=O)NO (centres unmarked) [3b],Ki,E. coli LpxC (EcLpxC),0.024 nM
C[C@@](OCc1ccc(-c2ccccc2)cc1)(C(=O)NO)[C@@H](O)c1ccccn1 [5b],IC50,[1],15 nM
C[C@@](OCc1ccc(-c2ccccc2)cc1)(C(=O)NO)[C@@H](O)c1cnc[nH]1 [5c],IC50,[1],0.8 nM
Cc1cc([C@H](O)[C@](C)(OCc2ccc(-c3ccccc3)cc2)C(=O)NO)no1 [5d],IC50,[1],0.4 nM
CCc1ccc(-c2ccc(C(=O)N[C@H](C(=O)NO)[C@@H](C)N)cc2)cc1 [7a],PaLpxC: IC50,[1],0.0005 µg/mL
CCc1ccc(-c2ccc(C(=O)N[C@H](C(=O)NO)[C@@H](C)NCC(=O)O)cc2)cc1 [7b],PaLpxC: IC50,[1],0.0004 µg/mL
CCc1ccc(-c2ccc(C(=O)N[C@H](C(=O)NO)[C@@H](C)NCc3ccccn3)cc2)cc1 [7d],PaLpxC: IC50,[1],0.041 µg/mL
"O=C(NO)[C@H](OCc1ccc(C#Cc2ccc(CN3CCOCC3)cc2)cc1)[C@H](O)COCc1ccccc1 [(2R,3R)-10]",LasB Inhibition at 20 μM,LasB,n.i. (n.i.: <10% inhibition)
"O=C(NO)[C@H](OCc1ccc(C#Cc2ccc(CN3CCOCC3)cc2)cc1)[C@@H](O)COCc1ccccc1 [(2R,3S)-10]",MIC E. coli BL21(DE3),E. coli BL21(DE3),>64 µg/mL
same,LasB Inhibition at 20 μM,LasB,n.i. (n.i.: <10% inhibition)
"O=C(NO)[C@@H](OCc1ccc(C#Cc2ccc(CN3CCOCC3)cc2)cc1)[C@@H](O)COCc1ccccc1 [(2S,3S)-10]",fold higher LpxC inhibitory activity than its (2R)-configured diastereomer,E. coli LpxC C63A [2],about 3 fold
same,MIC E. coli BL21(DE3),E. coli BL21(DE3),4.0 µg/mL
"Cc1noc(C)c1COC[C@H](O)[C@H](OCc1ccc(C#Cc2ccc(CN3CCOCC3)cc2)cc1)C(=O)NO [(2S,3S)-40]",LasB Inhibition at 20 μM,LasB,n.i. (n.i.: <10% inhibition)
CC(O)C(NC(=O)c1ccc(C#CC#Cc2ccc(N)cc2)cc1)C(=O)NO (centres unmarked) [LPC-011],Ki,E. coli LpxC (EcLpxC),0.039 nM
"CCCCCCCCCCCC(O)CC(=O)OC1C(O)C(CO)OC(OP(=O)(O)OP(=O)(O)OCC2OC(n3ccc(=O)[nH]c3=O)C(O)C2O)C1NC(C)=O [compound 1, UDP-3-O-[(R)-3-hydroxymyristoyl]-N-acetylglucosamine]",Km,E. coli LpxC C63A [3],3.6 µM
same,Km,P. aeruginosa LpxC,4.7 µM
